Data reported in patent US20160244436A1, “NOVEL FUNCTIONALIZED 5-(PHENOXYMETHYL)-1,3-DIOXANE ANALOGS EXHIBITING CYTOCHROME P450 INHIBITION AND THEIR METHOD OF USE” (CORTENDO AB (PUBL), priority 2013, published 2016).

Molecular target: T1, recombinant CYP-17 (Homo sapiens, UniProt P05093)
T1 construct: expressed in transfected cells; host or cells: AD293
T1 sequence (P05093 1-508): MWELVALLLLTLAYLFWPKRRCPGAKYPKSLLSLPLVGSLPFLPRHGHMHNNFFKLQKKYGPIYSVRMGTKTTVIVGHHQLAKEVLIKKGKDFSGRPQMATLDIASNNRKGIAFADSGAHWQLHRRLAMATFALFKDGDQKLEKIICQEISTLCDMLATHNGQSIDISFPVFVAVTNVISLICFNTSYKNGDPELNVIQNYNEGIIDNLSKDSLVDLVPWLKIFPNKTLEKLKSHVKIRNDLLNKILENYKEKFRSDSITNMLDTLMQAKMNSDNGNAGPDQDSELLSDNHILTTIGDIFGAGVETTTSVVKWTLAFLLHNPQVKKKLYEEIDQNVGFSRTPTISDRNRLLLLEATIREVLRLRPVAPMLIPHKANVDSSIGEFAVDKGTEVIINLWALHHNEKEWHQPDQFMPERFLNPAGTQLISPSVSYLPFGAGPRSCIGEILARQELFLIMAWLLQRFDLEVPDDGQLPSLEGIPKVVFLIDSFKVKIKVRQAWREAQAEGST
Assay: Cyp17 assay: AD293 cells over-expressing recombinant CYP-17, 3H-acetic acid release from [21-3H] 17α-hydroxyl-Pregnenolone
Type: cell-based
Protocol: Cyp17 assay protocol: AD293 cells that stably over-express recombinant CYP-17 were seeded in 96 well plates coated with poly D-lysine (15,000 cell per well) and incubated at 37° C. for 24 hours in Dulbecco's Modified Eagle Medium (DMEM) with Fetal Bovine Serum (FBS) that is stripped of hormones by charcoal treatment. The media is then removed, the cells are washed once with Phosphate buffer saline solution, and 50 μL Dulbecco's Modified Eagle Medium (DMEM) with Fetal Bovine Serum (FBS) that is stripped of hormones by charcoal treatment is added. Compounds of the disclosure are then added to the wells in eight concentration spanning 10 μM to 4.5 nM, and the plates are incubated for an additional 60 minutes at 37° C. [21-^3H] 17α-hydroxyl-Pregnenolone is then added (50 nCi per well, 31.25 nM) and the plates are incubated for an additional 4 hours at 37° C. The media is then collected, 200 μL, of chloroform is added, and the mixture is shaken for 1 hour. The aqueous layer is then separated and analyzed for the presence of ^3H-acetic acid using a Perkin Elmer Topcount NXT to determine IC50s of the compounds of the disclosure.

CC(=O)N1CCN(c2ccc(CO[C@H]3CO[C@](Cn4ccnc4)(c4ccc(Cl)cc4Cl)OC3)cc2)CC1 [drawing 112]
IC50: 8 nM
